This experiment deals with 5'-nucleotidase (Homo sapiens, UniProt P21589). Description: Biochemical Assay: Assay Reaction ConditionsAssay Volume: 70 μlReaction Volume: 50 μlCD73: 0.3208 nMAMP: 15 μMAssay Buffer: 2 5 mM Tris-HCL, pH 7.4, 0.01% Brij-35, 0.01% BSA, 5 mM MgCl2Assay Procedure:Used 384 clear plate.Made dose titration of testing compounds in assay buffer, 10 points ½ log titrations in duplicates starting at 100 μM.Added 25 μl of CD73 to each well for a final concentration of 320 pM.Incubated at RT for 15 min.Added 25 μl of AMP to each well for a final concentration of 15 μM.Incubated at RT for 10 min.Added 10 μl of Malachite Green Reagent A, incubate at RT for 10 min.Added 10 μl of Malachite Green Reagent B, incubate at RT for 45 min.Read the Absorbance on Envision plate reader using excitation filter: Cy5 620 nM.

A value given as a limit tells only on which side of the number the result lay.

Broadly, the IC50 is the concentration that gives 50% inhibition. Higher therefore signals lower potency.

Sequence of 5'-nucleotidase (P21589 whole entry): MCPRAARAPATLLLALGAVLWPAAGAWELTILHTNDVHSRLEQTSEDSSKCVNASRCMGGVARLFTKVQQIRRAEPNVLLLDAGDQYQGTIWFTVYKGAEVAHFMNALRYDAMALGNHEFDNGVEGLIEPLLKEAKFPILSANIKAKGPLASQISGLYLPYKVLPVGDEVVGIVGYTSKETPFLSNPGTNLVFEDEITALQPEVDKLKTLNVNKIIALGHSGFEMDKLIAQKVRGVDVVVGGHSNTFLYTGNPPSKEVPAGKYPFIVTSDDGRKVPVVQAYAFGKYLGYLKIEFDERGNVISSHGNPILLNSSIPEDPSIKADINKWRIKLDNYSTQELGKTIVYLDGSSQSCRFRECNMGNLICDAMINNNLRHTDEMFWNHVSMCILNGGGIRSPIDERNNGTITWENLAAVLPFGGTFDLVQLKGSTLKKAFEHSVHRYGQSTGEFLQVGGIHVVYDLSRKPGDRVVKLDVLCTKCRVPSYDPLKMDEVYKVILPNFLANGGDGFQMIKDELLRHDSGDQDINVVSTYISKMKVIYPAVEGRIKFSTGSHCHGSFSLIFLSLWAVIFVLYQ

Regarding `O=P(O)(O)COC[C@H]1O[C@@H](n2ncc3c(NCc4cccc(Cl)c4Cl)nc(Cl)nc32)[C@H](O)[C@@H]1O`, the IC50 is less than 500 nM.

`CNc1nc(Cl)nc2c1cnn2[C@@H]1O[C@H](COCP(=O)(O)O)[C@@H](O)[C@H]1O` yielded an IC50 of less than 500 nM. Under `C[C@]1(O)C[C@@H](Nc2nc(Cl)nc3c2cnn3[C@@H]2O[C@H](COCP(=O)(O)O)[C@@H](O)[C@H]2O)C1` stands less than 500 nM.

For the origin of these results see ChEMBL document CHEMBL5729192, “CD73 inhibitors” (2022).
